Test results reported in publication PMC3729039 (Molecular cancer therapeutics, 2013).

Experiments:
[1] = system: LNCaP human prostate cancer cells; assay: Androgen-dependent proliferation of LNCaP cells; assay type: cell-based; settings: 0.1 nM R1881
[2] = target: recombinant human full-length ERα (Homo sapiens, UniProt P03372); assay: In vitro ligand competitor assay; assay type: binding; settings: fluorescence polarization competitor assay
LNCaP95 cells = assay: LNCaP95 cell growth/viability
[3] = system: PC3 human prostate cancer cells; assay: Proliferation of PC3 cells; assay type: cell-based; settings: PC3, 0.1 nM R1881
VCaP cells = assay: Viability assay, VCaP; assay type: cell-based; settings: VCaP (wild-type AR), treated for 5 days
PC3 cells = assay: Viability assay, PC3; assay type: cell-based, human; settings: PC3, treated for 3 days
[4] = target: T1, full-length human progesterone receptor-beta (PRβ) (Homo sapiens, UniProt P06401); assay: PR transcriptional activity, PRE luciferase reporter in LNCaP cells; assay type: cell-based; settings: 10 µM, 10 nM 4-pregnene-3,20 dione, 48 hours
T1 sequence (P06401 1-933): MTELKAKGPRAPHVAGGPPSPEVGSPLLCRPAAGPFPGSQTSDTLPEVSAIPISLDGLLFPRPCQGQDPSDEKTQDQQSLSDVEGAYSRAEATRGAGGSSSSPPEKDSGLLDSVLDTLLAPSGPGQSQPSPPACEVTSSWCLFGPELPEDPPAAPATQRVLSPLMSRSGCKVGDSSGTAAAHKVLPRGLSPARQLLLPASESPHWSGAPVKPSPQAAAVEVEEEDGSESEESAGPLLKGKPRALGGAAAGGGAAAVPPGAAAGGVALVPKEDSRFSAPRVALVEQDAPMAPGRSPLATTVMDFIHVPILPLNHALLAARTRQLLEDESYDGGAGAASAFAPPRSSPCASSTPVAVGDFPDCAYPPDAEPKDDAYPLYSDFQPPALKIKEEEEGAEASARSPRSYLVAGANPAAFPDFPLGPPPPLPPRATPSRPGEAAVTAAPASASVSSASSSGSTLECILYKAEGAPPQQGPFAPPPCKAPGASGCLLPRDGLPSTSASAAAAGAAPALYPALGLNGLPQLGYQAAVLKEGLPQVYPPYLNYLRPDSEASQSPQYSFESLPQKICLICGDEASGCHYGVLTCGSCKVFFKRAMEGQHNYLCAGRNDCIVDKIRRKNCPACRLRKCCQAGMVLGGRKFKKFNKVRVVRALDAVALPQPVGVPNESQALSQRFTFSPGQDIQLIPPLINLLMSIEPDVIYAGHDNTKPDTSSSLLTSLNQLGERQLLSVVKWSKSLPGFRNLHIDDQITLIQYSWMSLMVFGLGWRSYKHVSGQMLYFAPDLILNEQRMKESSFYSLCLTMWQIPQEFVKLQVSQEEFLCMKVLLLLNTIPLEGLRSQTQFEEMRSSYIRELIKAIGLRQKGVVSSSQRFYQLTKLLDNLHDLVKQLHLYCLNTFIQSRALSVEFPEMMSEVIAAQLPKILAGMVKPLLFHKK

[5] = system: PSA, FKBP5 and TMPRSS2 transcripts; assay: qRT-PCR of androgen-regulated genes in VCaP cells; assay type: cell-based; settings: 10 µM, 1 nM R1881, 16 hours
recombinant human PR LBD = target: T2, recombinant human PR LBD (Homo sapiens, UniProt P06401); assay: In vitro ligand competitor assay; assay type: binding
T2 sequence (P06401 679-913 limits assumed): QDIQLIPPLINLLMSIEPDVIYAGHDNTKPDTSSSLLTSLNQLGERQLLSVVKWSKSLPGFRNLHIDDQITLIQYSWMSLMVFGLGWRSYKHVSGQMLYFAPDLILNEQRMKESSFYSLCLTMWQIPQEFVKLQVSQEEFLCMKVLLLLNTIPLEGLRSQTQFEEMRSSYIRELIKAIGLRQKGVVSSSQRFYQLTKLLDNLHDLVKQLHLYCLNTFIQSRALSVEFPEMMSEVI

[6] = target: T3, full-length human glucocorticoid receptor (GR) (Homo sapiens, UniProt P04150); assay: GR transcriptional activity, GRE reporter in LNCaP cells; settings: 10 µM, 10 nM dexamethasone, 48 hours
T3 sequence (P04150 1-777): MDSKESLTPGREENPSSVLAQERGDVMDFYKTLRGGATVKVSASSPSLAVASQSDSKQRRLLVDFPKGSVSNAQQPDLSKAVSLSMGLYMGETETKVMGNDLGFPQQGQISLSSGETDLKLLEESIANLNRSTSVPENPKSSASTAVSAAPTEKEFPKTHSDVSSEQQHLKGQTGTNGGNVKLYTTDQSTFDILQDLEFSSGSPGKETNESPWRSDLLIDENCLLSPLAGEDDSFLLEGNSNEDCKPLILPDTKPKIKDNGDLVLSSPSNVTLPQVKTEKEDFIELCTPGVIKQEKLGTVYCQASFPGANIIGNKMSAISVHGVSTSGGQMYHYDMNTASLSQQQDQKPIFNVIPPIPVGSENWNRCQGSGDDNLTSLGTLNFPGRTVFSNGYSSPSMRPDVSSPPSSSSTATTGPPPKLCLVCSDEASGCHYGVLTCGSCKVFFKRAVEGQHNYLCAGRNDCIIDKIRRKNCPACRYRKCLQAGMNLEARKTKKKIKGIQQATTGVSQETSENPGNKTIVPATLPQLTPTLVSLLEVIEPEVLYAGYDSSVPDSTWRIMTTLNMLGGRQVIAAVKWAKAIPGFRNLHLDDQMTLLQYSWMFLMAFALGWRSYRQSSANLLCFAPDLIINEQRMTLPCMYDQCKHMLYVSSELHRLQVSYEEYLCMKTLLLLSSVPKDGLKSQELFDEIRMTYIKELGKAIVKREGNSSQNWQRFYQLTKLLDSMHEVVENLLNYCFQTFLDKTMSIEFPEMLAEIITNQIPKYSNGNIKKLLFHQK

[7] = system: seminal vesicles (androgen-dependent tissue); assay: In vivo effects on androgen-dependent tissue in intact male mice; parameters: species or system NOD-SCID mice; settings: mature male mice, 10 mg/kg oral gavage, 13 daily doses
LNCaP cells = assay: Viability assay, LNCaP; assay type: cell-based, human; settings: treated for 4 days

Chain of recombinant human full-length ERα (P03372 whole entry): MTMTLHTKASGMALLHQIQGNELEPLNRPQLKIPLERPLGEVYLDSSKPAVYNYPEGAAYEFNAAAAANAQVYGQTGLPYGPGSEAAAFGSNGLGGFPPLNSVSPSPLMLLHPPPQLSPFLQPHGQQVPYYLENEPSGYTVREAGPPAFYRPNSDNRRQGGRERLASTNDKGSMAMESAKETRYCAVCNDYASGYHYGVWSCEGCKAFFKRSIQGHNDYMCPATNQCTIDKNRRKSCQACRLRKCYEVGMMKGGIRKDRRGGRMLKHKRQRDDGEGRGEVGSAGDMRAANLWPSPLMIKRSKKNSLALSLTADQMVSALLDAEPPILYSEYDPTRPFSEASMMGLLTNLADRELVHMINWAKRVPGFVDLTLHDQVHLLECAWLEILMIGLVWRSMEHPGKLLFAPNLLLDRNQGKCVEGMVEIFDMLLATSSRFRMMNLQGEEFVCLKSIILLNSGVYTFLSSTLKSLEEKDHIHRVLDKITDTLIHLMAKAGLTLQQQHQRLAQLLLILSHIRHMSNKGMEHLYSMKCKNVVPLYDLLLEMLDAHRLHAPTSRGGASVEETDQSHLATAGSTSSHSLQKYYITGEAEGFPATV

Row | SMILES | effect of androgen on proliferation [1] | competition with fluoromone for ERα [2] | effect on cell growth/viability (LNCaP95 cells) | effect of androgen on proliferation [3] | cytotoxicity (viability assay) (VCaP cells) | cytotoxicity (viability assay) (PC3 cells) | effect on PR transcriptional activity induced by Preg [4] | effect on androgen-induced levels of PSA transcript [5] | effect on androgen-induced levels of transcript for FKBP5 and TMPRSS2 [5] | EC50 (recombinant human PR LBD) [µM] | effect on transcriptional activity of GR induced by dexamethasone [6] | testes weight [7] | cytotoxicity (viability assay) (LNCaP cells)
1 | C[C@]1(O)CC[C@H]2[C@@H]3CCC4=CC(=O)CCC4=C3C=C[C@@]21C [R1881] | led to increased proliferation | none of the AR ligands (R1881, BIC and the diterpenoids) were efficient in competing | not altered | did not alter their proliferation |  |  |  |  |  |  |  |  | 
2 | CC(O)(CS(=O)(=O)c1ccc(F)cc1)C(=O)Nc1ccc(C#N)c(C(F)(F)F)c1 (stereo not drawn) [BIC, bicalutamide] |  |  | not altered |  | no indication of cytotoxicity | no indication of cytotoxicity | inhibited | neither BIC or any of the diterpenoids significantly reduced these levels | significantly blocked | 5.1 | had no effect | no effect on the weight of testis | no indication of cytotoxicity
3 | CC#C[C@]1(O)CC[C@H]2[C@@H]3CCC4=CC(=O)CCC4=C3[C@@H](c3ccc(N(C)C)cc3)C[C@@]21C [RU486] |  |  |  |  |  |  | inhibited |  |  |  |  |  | 
